In patent EP1963277B1, “FLUORINATED COMPOUNDS” (priority 2005, dated 2007):
Read-outs that look alike come from different tables or passages of the source.

What was measured:
Assay type in all cases: in vivo
Male, CD-1 mice = assay: Maximal Electroshock Assay (mouse); details: for ED50: oral pretreatment, range in parentheses
Method: Male, CD-1 mice (20-30g body weight) were orally pretreated with test compound or vehicle control, and either at 1h or 4h post dose a maximal electroshock (45mA amplitude, 0.2s duration, 60Hz) was applied by corneal electrodes. Protection was defined by the absence of a tonic extensor seizure in the animal within 20s of application of the electrical stimulus, which typically occurred in all vehicle pretreated animals. Animals received only one electroshock and so separate animals were used for the 1h and 4h timepoints. All drugs were administered in multiple doses.

[1] = system: Male, Sprague-Dawley rats; assay: Maximal Electroshock Assay (rat); details: for ED50: oral pretreatment, range in parentheses
Method: Male, Sprague-Dawley rats (approx. 100g body weight) were prescreened for tonic seizure susceptibility prior to drug testing. […] Protection was defined by the absence of a tonic extensor seizure in the animal within 20s of application of the electrical stimulus, which typically occurred in all vehicle pretreated animals. Animals received only one electroshock on the drug test day and so separate animals were used for the 0.5h and 4h timepoints. All drugs were administered in multiple doses.

rats = assay: Persistent Inflammatory Pain (Formalin Model); details: Rattus norvegicus, formalin test, 30 min pretreatment; for inhibition at 30 mg/kg: ip, i.p.; for inhibition at 60 mg/kg: po, p.o.
Method: The formalin test is a chemically-induced tonic pain model in which injection of formalin into a hind paw elicits a biphasic nociceptive behavior. The second phase of formalin response is predominantly due to a central sensitization phenomenon. Most clinically used drugs against neuropathic pain arc active on this second phase of formalin response. Formalin test is accepted as a valid model of persistent clinical pain.
The test was done by pretreating the rats with the test compound and 30 min later (pretreatment time), 50 µl of 2.5% formalin was injected into the right hind paw of the animal. The number of paw licking and flinching episodes were scored for 60 min post-formalin injection.
The compounds were administered either intraperitoneally (30 mg/kg) or orally (60 mg/kg).

SNI rats [2] = assay: Spared Nerve Injury (SNI) model, mechanical allodynia (Dynamic Plantar Aesthesiometer); details: for withdrawal threshold, Post Admin 30 min / withdrawal threshold, Post Admin 60 min / withdrawal threshold, Post Admin 180 min: *** P<0.001 vs Pre-Admin.; for withdrawal threshold, Pre-Admin. 0 min: baseline before administration
Method: (§1) The compounds were tested for their efficacy in reducing mechanical allodynia and cold allodynia in the spared nerve injury (SNI) model of chronic neuropathic pain. In this model, the left sciatic nerve of the rat is exposed under anesthesia. Two of the branches of the sciatic nerve viz. the common peroneal and tibial nerve are ligated and sectioned. The third branch (sural nerve) is left intact. The animals were allowed a post-operative recovery period of 7 days before they were subjected to any test.
The presence of mechanical allodynia was assessed using the Dynamic Plantar Aesthesiometer (Ugo Basile, Italy) which is a modified version of the Von Frey Hair test. In this, a test filament is positioned below the animal's hind paw and the unit is activated which causes the filament to move up and touch the plantar surface of the hind paw. Increasing force is applied to the paw via the filament. […] The cut-off force is set at 50 g. The tests were done on both the non-injured (control) and the injured (SNI) paw.
Testing of compounds was done after 21 days post-operatively. After initial basal readings were taken, the test compound or the vehicle was administered (10 ml/kg) either intraperitoneally (30 mg/kg) or orally (60 mg/kg). The readings were taken again 30, 60 and 180 min after the compound/vehicle administration.

SNI rats [3] = assay: Spared Nerve Injury (SNI) model, cold allodynia (acetone test); details: for duration (s) of nociceptive response, Post Admin 30 min: *** P<0.001 vs Pre-Admin.; for duration (s) of nociceptive response, Pre-Admin. 0 min: baseline before administration
Method: as §1
Cold allodynia was assessed by using the acetone test. In this model, 25 µl of acetone is sprayed on to the plantar surface of the hind paw. Evaporation of acetone causes cooling of the skin. The cold stimulus sets up nociceptive responses from the injured paw as evidenced by paw lifting, paw licking and grooming. The duration of the nociceptive responses is noted.
Testing of compounds was done after 21 days post-operatively. After initial basal readings were taken, the test compound or the vehicle was administered (10 ml/kg) either intraperitoneally (30 mg/kg) or orally (60 mg/kg). The readings were taken 30 min after the administration.

FCA-treated rats [4] = assay: Freund's Complete Adjuvant (FCA) model, mechanical allodynia (modified Randall-Selitto method); details: p.o.
Method: (§2) Administration of FCA to the hind paw of an animal induces the formation of a localized edema and has been widely used as a model of chronic inflammatory pain. 100 µl of FCA is injected subcutaneously into the dorsal aspect of the left hind paw of the rats. The edema appears within 2 h reaches a peak by 6h and lasts for about 7 days. The effects of compounds on mechanical allodynia and paw volume were studied 2 days after FCA administration.
The effect of the compounds in alleviating mechanical allodynia was assessed in the FCA-treated rats using the modified Randall-Selitto method (Analgesy-Meter, Ugo Basile, Italy). The animal's paw is placed on a small plinth under a cone-shaped pusher. Increasing force is applied to the paw by depressing a pedal until vocalization or withdrawal of the paw occurs. The minimum force required to elicit this vocalization/withdrawal is the paw pressure threshold. The cut-off was set at 150 g.
After the initial basal (control) readings were taken, the test compound (60 mg/kg)/vehicle was administered orally in a volume of 10 ml/kg. The paw pressure thresholds were measured 30, 60 and 180 min post administration. […] Some of the compounds were effective even at 60 and 180 min post administration.

FCA-treated rats [5] = assay: Freund's Complete Adjuvant (FCA) model, paw edema/volume (plethysmometer); details: p.o.
Method: as §2
The edema/volume of the paw is a measure of inflammation induced by FCA. This was measured by using a plethysmometer (Ugo Basile, Italy). In this, the paw of the rat is immersed in a reservoir of water and the volume of water displaced indicates the paw volume.
After the initial basal (control) readings were taken, the test compound (60 mg/kg)/vehicle was administered orally in a volume of 10 ml/kg.

[6] = group later given 30 mg/kg, i.p.
[7] = group later given 60 mg/kg, p.o.
[8] = 60 mg/kg, ** P<0.01, *** P<0.001 vs Pre-Admin.
[9] = group later given 60 mg/kg, baseline before administration

CC(=O)N[C@H](COC(F)F)C(=O)NCc1ccc(Cl)cc1 [Compound 20]
duration of action (Male, CD-1 mice; mouse MES, judged by similar potency at 1h and 4h pretreatment timepoints): longer than Lacosamide | Ratio ED50 4h vs. 1h (Male, CD-1 mice; mouse, oral): 2.1 | shift in ED50 for 1 vs. 4h (Male, CD-1 mice; mouse, oral): 1 to 3.5 fold | ED50 (Male, CD-1 mice; mouse, electroshock 1h post dose, blockade of tonic extensor seizure, read-out: MES oral ED50 1h): 8.7 mg/kg | ED50 (Male, CD-1 mice; read-out: MES oral ED50 4h, mouse, electroshock 4h post dose): 17.9 mg/kg | duration of action ([1]; rat MES, judged by similar potency at 0.5h and 4h pretreatment timepoints): longer than Lacosamide | Ratio ED50 4h vs. 0.5h ([1]; rat, oral): 1.2 | shift in ED50 for 0.5 vs. 4h ([1]; rat, oral): 1 to 1.4 fold | ED50 ([1]; read-out: MES oral ED50 0.5h, rat, electroshock 0.5h post dose): 1.7 mg/kg | ED50 ([1]; read-out: MES oral ED50 4h, rat, electroshock 4h post dose): 2 mg/kg | inhibition at 30 mg/kg (rats; *** P<0.001, read-out: %Inhibition Phase I): 75.3 ± 9.3% | inhibition at 30 mg/kg (rats; *** P<0.001, read-out: %Inhibition Phase II): 82.3 ± 9.7% | inhibition at 60 mg/kg (rats; ** P<0.01, *** P<0.001, read-out: %Inhibition Phase II): 57.6 ± 7% | inhibition at 60 mg/kg (rats; read-out: %Inhibition Phase I): 9.6 ± 8.1% | withdrawal threshold, Post Admin 30 min (SNI rats [2]; 30 mg/kg, i.p.): 24.9 ± 4.4*** g | withdrawal threshold, Post Admin 60 min (SNI rats [2]; 30 mg/kg, i.p.): 23.3 ± 3.2*** g | withdrawal threshold, Post Admin 180 min (SNI rats [2]; 30 mg/kg, i.p.): 26.3 ± 2.5*** g | withdrawal threshold, Post Admin 30 min (SNI rats [2]; 60 mg/kg, p.o.): 19.3 ± 1.8*** g | withdrawal threshold, Post Admin 60 min (SNI rats [2]; 60 mg/kg, p.o.): 20.3 ± 1.6*** g | withdrawal threshold, Post Admin 180 min (SNI rats [2]; 60 mg/kg, p.o.): 14.7 ± 0.9*** g | withdrawal threshold, Pre-Admin. 0 min (SNI rats [2]; [6]): 12.4 ± 1.3 g | withdrawal threshold, Pre-Admin. 0 min (SNI rats [2]; [7]): 7.5 ± 0.5 g | duration (s) of nociceptive response, Post Admin 30 min (SNI rats [3]; 30 mg/kg, i.p.): 3.4 ± 2.1*** s | duration (s) of nociceptive response, Post Admin 30 min (SNI rats [3]; 60 mg/kg, p.o.): 16.6 ± 6.3*** s | duration (s) of nociceptive response, Pre-Admin. 0 min (SNI rats [3]; [6]): 45.6 ± 6.9 s | duration (s) of nociceptive response, Pre-Admin. 0 min (SNI rats [3]; [7]): 33.3 ± 4.3 s | paw withdrawal threshold (g), Post Admin 30 min (FCA-treated rats [4]; [8]): 67.1 ± 9.9*** g | paw withdrawal threshold (g), Post Admin 60 min (FCA-treated rats [4]; [8]): 60.4 ± 5.8*** g | paw withdrawal threshold (g), Post Admin 180 min (FCA-treated rats [4]; [8]): 64.2 ± 5.6*** g | paw withdrawal threshold (g), Pre-Admin. 0 min (FCA-treated rats [4]; [9]): 23.3 ± 2.1 g | paw volume (ml), Post Admin 30 min (FCA-treated rats [5]; 60 mg/kg): 2.3 ± 0.1 mL | paw volume (ml), Post Admin 60 min (FCA-treated rats [5]; 60 mg/kg): 2.3 ± 0.1 mL | paw volume (ml), Pre-Admin. 0 min (FCA-treated rats [5]; [9]): 2.3 ± 0.1 mL
